{"source": "patent US20190029989A1", "about": "“BOWEL CARE USING IONTOPHORESIS” (priority 2016, published 2019)", "type_in_all_cases": "in vivo, human", "key": {"[1]": {"tested_on": "Persons with SCI", "test": "Bowel evacuation score by video fluoroscopy after IV bolus in thirteen subjects (Example 3)", "settings": "IV bolus 2 mg neostigmine alone or with 0.4 mg glycopyrrolate", "protocol": "(§1) Thirteen (13) persons with SCI (5 quadriplegics, 8 paraplegics) with a mean age of 46 years (range 25-69) and mean duration of injury of 16 years (range 1-31) were treated. None of the subjects had known heart disease and/or history of arrhythmias.\n(§2) On separate days, subjects were given by IV bolus either (i) 2 mg neostigmine alone, (ii) a combination of 2 mg neostigmine and 0.4 mg glycopyrrolate, or (iii) normal saline. Subjects were blinded to the type of infusion being delivered. The effect of these infusions on bowel evacuation was assessed semi-quantitatively on a scale of 0 (no evacuation) to 4+(complete evacuation) using video fluoroscopy after rectal instillation of a barium-oatmeal paste having a consistency similar to that of stool. Blood pressure, heart rate and other vital signs were monitored in each subject. In addition, airway resistances were determined in each subject using the forced oscillation technique (as described, for example, in Goldman, Pulm. Pharmacol. Ther., 14(5):341-350, 2001). Total airway resistance was determined using 5 Hz forced oscillations, and central airway resistance was determined using 20 Hz forced oscillations.\nThis response received a 0 (zero) bowel evacuation score. FIGS. 1B-1E show progressively increasing bowel evacuation responses in different subjects. The responses in FIGS. 1B-1E correspond to bowel evacuation scores of 1+, 2+, 3+, and 4+, respectively."}, "[2]": {"tested_on": "Persons with SCI", "test": "Heart rate and blood pressure monitoring after IV bolus (Example 3)", "settings": "IV bolus 2 mg neostigmine alone or with 0.4 mg glycopyrrolate", "protocol": "as §1, §2"}, "[3]": {"tested_on": "Persons with SCI", "test": "Airway resistance by forced oscillation technique after IV bolus (Example 3)", "settings": "IV bolus 2 mg neostigmine", "protocol": "as §1, §2"}}, "data": [{"smiles": "CN(C)C(=O)Oc1cccc([N+](C)(C)C)c1", "note": "[neostigmine]", "values": [{"measurement": "subjects with prompt and complete evacuation", "setting": "[1]", "result": 57, "unit": "%"}, {"measurement": "time of evacuation post infusion (mean)", "setting": "[1]", "result": 11, "unit": "min"}, {"measurement": "mean bowel evacuation score", "setting": "[1]; scale 0 (no evacuation) to 4+ (complete evacuation), thirteen subjects", "result": "about 2.29"}, {"measurement": "change in blood pressure", "setting": "[2]", "result": "No change"}, {"measurement": "mean lowest heart rate measured", "setting": "[2]; p=0.02", "result": "about 49 BMP"}, {"measurement": "total airway resistance, increase over baseline", "setting": "[3]; 5 Hz forced oscillations", "result": "approximately 25.5%"}, {"measurement": "central airway resistance, increase over baseline", "setting": "[3]; 20 Hz forced oscillations", "result": "approximately 18.4%"}]}]}
